# Measurements published in US7141592B2, “Substituted oxadiazolidinediones” (Wyeth, priority 2003, dated 2006).
# Assays:
# human PAI-1 = human PAI-1 (Homo sapiens, UniProt P05121); assay: Assay for determining IC50 of inhibition of PAI-1 (active PAI-1 bound to tPA-coated plate, 33B8 antibody detection); format: biochemical; settings: values carry suffix (K), not defined in the patent
# Experimental: This assay is based upon the non-SDS dissociable interaction between tPA and active PAI-1. Assay plates are initially coated with human tPA (10 μg/ml). Substituted oxadiazolidinediones of the present invention are dissolved in DMSO at 10 mM, then diluted with physiologic buffer (pH 7.5) to a final concentration of 1–50 μM. Test compounds are incubated with human PAI-1 (50 ng/ml) for 15 minutes at room temperature. The tPA-coated plate is washed with a solution of 0.05% Tween 20 and 0.1% BSA, then the plate is blocked with a solution of 3% BSA. An aliquot of the substituted oxadiazolidinedione/PAI-1 solution is then added to the tPA-coated plate, incubated at room temperature for 1 hour, and washed. Active PAI-1 bound to the plate is assessed by adding an aliquot of a 1:1000 dilution of the 33B8 monoclonal antibody against human PAI-1, and incubating the plate at room temperature for 1 hour (Molecular Innovations, Royal Oak, Mich.). The plate is again washed, and a solution of goat anti-mouse IgG-alkaline phosphatase conjugate is added at a 1:50,000 dilution in goat serum. The plate is incubated 30 minutes at room temperature, washed, and a solution of alkaline phosphatase substrate is added. The plate is incubated 45 minutes at room temperature, and color development is determined at OD405nm. The quantitation of active PAI-1 bound to tPA at varying concentrations of the substituted oxadiazolidinedione is used to determine the IC50. Results are analyzed using a logarithmic best-fit equation. The assay sensitivity is 5 ng/ml of human PAI-1 as determined from a standard curve ranging from 0–100 ng/ml.
# [1] = target: T1, recombinant human plasminogen activator inhibitor-1 (PAI-1) (Homo sapiens, UniProt P05121); assay: Primary screen for the PAI-1 inhibition (chromogenic tPA activity, Spectrozyme-tPA); format: biochemical; settings: compound at 100 μM
# T1 construct: purchased Molecular Innovations, Royal Oak, Mich
# T1 sequence (P05121 24-402): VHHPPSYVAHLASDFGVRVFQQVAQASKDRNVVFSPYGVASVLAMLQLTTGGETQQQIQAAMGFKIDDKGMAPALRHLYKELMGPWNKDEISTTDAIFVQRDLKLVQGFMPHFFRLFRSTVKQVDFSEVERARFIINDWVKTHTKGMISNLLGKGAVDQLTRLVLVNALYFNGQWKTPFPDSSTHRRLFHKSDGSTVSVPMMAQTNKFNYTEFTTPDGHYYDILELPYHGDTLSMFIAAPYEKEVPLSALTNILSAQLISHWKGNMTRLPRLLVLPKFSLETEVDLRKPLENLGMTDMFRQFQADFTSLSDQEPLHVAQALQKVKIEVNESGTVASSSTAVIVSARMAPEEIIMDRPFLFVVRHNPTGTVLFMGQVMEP
# Outline: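 Compound (1–100 μM, ≤0.2% DMSO) preincubated 1 h at room temperature with 140 nM recombinant human PAI-1 at pH 6.6. 70 nM recombinant human tPA then added for 30 min, followed by chromogenic Spectrozyme-tPA read at 405 nm at 0 and 60 min. Inhibition expressed as residual tPA activity.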
# Sequence of human PAI-1 (P05121 24-402): as above
compound,measurement,setting,value
"O=c1[nH]c(=O)n(Cc2cn(Cc3ccccc3)c3ccc(OCc4cccc(C(F)(F)F)c4)cc23)o1 [Compound 10, 2-[(1-benzyl-5-{[3-(trifluoromethyl)benzyl]oxy}-1H-indol-3-yl)methyl]-1,2,4-oxadiazolidine-3,5-dione]",IC50,human PAI-1,9.36 µM
same,inhibition at 100 µM,[1],92%
"CC(C)(C)c1ccc(COc2ccc3c(c2)c(Cn2oc(=O)[nH]c2=O)cn3Cc2ccccc2)cc1 [Compound 1, 2-({1-benzyl-5-[(4-tert-butylbenzyl)oxy]-1H-indol-3-yl}methyl)-1,2,4-oxadiazolidine-3,5-dione]",IC50,human PAI-1,13.8 µM
same,inhibition at 100 µM,[1],96%
"O=c1[nH]c(=O)n(Cc2cn(Cc3ccccc3)c3ccc(OCc4cccc(Cl)c4)cc23)o1 [Compound 9, 2-({1-benzyl-5-[(3-chlorobenzyl)oxy]-1H-indol-3-yl}methyl)-1,2,4-oxadiazolidine-3,5-dione]",IC50,human PAI-1,26.5 µM
same,inhibition at 100 µM,[1],92%
"2-[(3′-{[3-(trifluoromethyl)benzyl]oxy}-1,1′-biphenyl-3-yl)methyl]-1,2,4-oxadiazolidine-3,5-dione [Compound 41]",% Inhibition @ 100 μM,[1],81%
